Results reported in patent US8859529B2, “Compounds for the treatment of inflammatory disorders” (Merck Sharp & Dohme Corp., priority 2008, dated 2014).
pIC50: −log10 of the molar value.

What was measured:
[1] = Area under the curve determinations of plasma levels in rats (rrAUC); assay type: in vivo; details: rapid rat AUC of the drug (parent) in plasma; oral 10 mg/kg, fasted rats, blood 0.5-6 h post-dosing
Protocol: To gain insight into the pharmacokinetic properties of the compounds of formula (I), plasma levels of the compounds in rats were determined according to the protocol described in Korfmacher, W. A,; Cox, K. A.; Ng, K. J.; Veals, J.; Hsieh, Y.; Wainhaus, S.; Broske, L; Prelusky, D.; Nomeir, A.; White, R. E. Rapid Commun. Mass Spectrorn, 2001, 15, 335. Briefly, rats, after an overnight fast, were dosed orally with the test compound at a dose of 10 mg/kg in a 5 mL/kg dose volume. Blood was collected at 0.5, 1, 2, 3, 4, and 6 h post-dosing. Mass spectrometry using high performance liquid chromatography was used to identify and measure the concentrations of the test compounds in the plasma at the various time points. The parent ion of each test compound was used to identify and quantitate the compounds in plasma.

[2] = system: TNF-α production from human whole blood; experiment: Inhibition of TNF-α production from human whole blood (hWBA); assay type: cell-based; details: human whole blood diluted 1:1, 1 h pre-incubation, LPS, 3.5 h, TNF-α by ELISA; N/A = Not Active
Protocol: The compounds' ability to inhibit TACE activity can also be determined in human whole blood using the assay conditions described n Example 15 below.
Human whole blood was diluted 1:1 with serum free medium (RPMI, L-glutamine, Pen-Strep, HEPES) and incubated with a test compound in a final volume of 360 μl for 1 h at 37° C. Forty microliters of LPS (10 μg/mL) was then added. Supernatant was collected after 3.5 h incubation and the concentration of TNF-α was determined by ELISA (R&D Systems). The concentration of the test compound which inhibits 50% of the amount of TNF-α from the untreated control was determined.

Compound	PK (rrAUC) parent [1] [µM·h]	pIC50 [2]
COc1ccc2c(c1)C(=O)N(C[C@@]1(c3cc4cnccc4o3)NC(=O)N(C(C)OC(=O)OC3COCOC3)C1=O)C2 (some centres unmarked) [Compound 60.1]	0	
COc1ccc2c(c1)C(=O)N(C[C@@]1(c3cc4nc(N5C[C@@H](O)CC5=O)ccc4o3)NC(=O)N(COC(=O)C(C)(C)C)C1=O)C2 [Compound 23]	60.895	
COc1ccc2c(c1)C(=O)N(C[C@@]1(c3cc4nc(Nc5cccnc5)ccc4o3)NC(=O)N(COC(=O)C(C)(C)C)C1=O)C2 [Compound 34]	0.094	5.88
COCCOCCOCCN1C(=O)N[C@@](CN2Cc3ccc(OC)cc3C2=O)(c2cc3ncccc3o2)C1=O [Compound 47]	0.019	
CCOC(=O)N(C)CCOC(=O)OCN1C(=O)N[C@@](CN2Cc3ccc(OC)cc3C2=O)(c2cc3cnccc3o2)C1=O [Compound 63.5]	0	
COc1ccc2c(c1)C(=O)N(C[C@@]1(c3cc4cnccc4o3)NC(=O)N(COC(=O)c3cccnc3)C1=O)C2 [Compound 67]	3.448	6.30
CCOCCOC(=O)OCN1C(=O)N[C@@](CN2Cc3ccc(OC)cc3C2=O)(c2cc3cnccc3o2)C1=O [Compound 63.6]		6.68
COc1ccc2c(c1)C(=O)N(C[C@@]1(c3cc4cnccc4o3)NC(=O)N(COC(=O)OC(C)(C)C)C1=O)C2 [Compound 63]	0	
COc1ccc2c(c1)C(=O)N(C[C@@]1(c3cc4cnccc4o3)NC(=O)N(COC(=O)c3ccccc3)C1=O)C2 [Compound 66]	1.861	
COc1ccc2c(c1F)C(=O)N(C[C@@]1(c3cc4nc(C(N)=O)ccc4o3)NC(=O)N(COC(=O)C(C)(C)C)C1=O)C2 [Compound 35]		7.10
COc1ccc2c(c1)C(=O)N(C[C@@]1(c3cc4cnccc4o3)NC(=O)N(COP(=O)(O)O)C1=O)C2 [Compound 74.1]		6.14
COc1ccc2c(c1)C(=O)N(C[C@@]1(c3cc4cnccc4o3)NC(=O)N(C(C)OC(=O)N(C)C)C1=O)C2 (some centres unmarked) [Compound 70]		6.11
COc1ccc2c(c1)C(=O)N(C[C@@]1(c3cc4cnccc4o3)NC(=O)N(CCN3CCOCC3)C1=O)C2 [Compound 50]	0	
CCOCCOC(=O)OCN1C(=O)N(C(=O)OCCOCC)[C@@](CN2Cc3ccc(OC)cc3C2=O)(c2cc3cnccc3o2)C1=O [Compound 89.1]		5.50
COc1ccc2c(c1F)C(=O)N(C[C@]1(c3cc4nc(C(N)=O)ccc4o3)C(=O)N(COC(=O)C(C)(C)C)C(=O)N1COC(=O)C(C)(C)C)C2 [Compound 81]		6.80
COc1ccc2c(c1)C(=O)N(C[C@]1(c3cc4cnccc4o3)C(=O)N(COC(=O)c3ccccc3)C(=O)N1C(=O)c1ccccc1)C2 [Compound 84]	0.126	
CCCN1CCN(c2ccc3oc([C@]4(CN5Cc6ccc(OC)c(F)c6C5=O)NC(=O)N(COC(=O)C(C)(C)C)C4=O)cc3n2)CC1 [Compound 40]		6.59
CCOC(=O)CN1C(=O)N[C@@](CN2Cc3ccc(OC)cc3C2=O)(c2cc3cnccc3o2)C1=O [Compound 58.2]	0	
COc1ccc2c(c1)C(=O)N(C[C@@]1(c3cc4ncccc4o3)NC(=O)N(C)C1=O)C2 [Compound 45]	0.947	
CCCCCCCCOCN1C(=O)N[C@@](CN2Cc3ccc(OC)cc3C2=O)(c2cc3cnccc3o2)C1=O [Compound 54]	0.571	
CCOP(=O)(OCC)OCN1C(=O)N[C@@](CN2Cc3ccc(OC)c(F)c3C2=O)(c2cc3nc(N4CCN(CC)CC4)ccc3o2)C1=O [Compound 73]		6.59
COc1ccc2c(c1)C(=O)N(C[C@]1(c3cc4cnccc4o3)C(=O)N(C(C)OC(=O)OC3COCOC3)C(=O)N1C(=O)OC1COCOC1)C2 (some centres unmarked) [Compound 88]	0	
COc1ccc2c(c1)C(=O)N(C[C@@]1(C#Cc3ccc(-c4ncccc4OC(=O)C(C)(C)C)cc3)NC(=O)N(COC(=O)C(C)(C)C)C1=O)C2 [Compound 42]		6.10
COc1ccc2c(c1)C(=O)N(C[C@]1(c3cc4ncccc4o3)C(=O)N(C(C)OC(C)=O)C(=O)N1C(C)=O)C2 (some centres unmarked) [Compound 78]		5.67

Compound	PK (rrAUC) parent [1] [µM·h]	pIC50 [2]
COc1ccc2c(c1F)C(=O)N(C[C@@]1(c3cc4cc5c(cc4o3)C(=O)NCC5)NC(=O)N(COC(=O)C(C)(C)C)C1=O)C2 [Compound 32]		6.87
COc1ccc2c(c1)C(=O)N(C[C@@]1(c3cc4cnccc4o3)NC(=O)N(C(C)OC(=O)N3CCN(C)CC3)C1=O)C2 (some centres unmarked) [Compound 71]		5.00
CCOCN1C(=O)N[C@@](CN2Cc3ccc(OC)cc3C2=O)(c2cc3cnccc3o2)C1=O [Compound 53]	5.183	
CCOc1ccc2c(c1F)C(=O)N(C[C@]1(c3cc4nc(N5CCN(CC)CC5)ccc4o3)C(=O)N(COC(=O)C(C)(C)C)C(=O)N1COC(=O)C(C)(C)C)C2 [Compound 85]		6.42
COc1ccc2c(c1F)C(=O)N(C[C@@]1(c3cc4c5c(ccc4o3)CNC5=O)NC(=O)N(COC(=O)C(C)(C)C)C1=O)C2 [Compound 8]	2.193	
COc1ccc2c(c1)C(=O)N(C[C@@]1(c3cc4cnccc4o3)NC(=O)N(Cc3cccnc3)C1=O)C2 [Compound 48.1]	0	
COc1ccc2c(c1F)C(=O)N(C[C@@]1(c3cc4cc([C@@]5(C)NC(=O)NC5=O)c(F)cc4o3)NC(=O)N(COC(=O)C(C)(C)C)C1=O)C2 [Compound 30]	0.335	
COc1ccc2c(c1)C(=O)N(C[C@]1(c3cc4ncccc4o3)C(=O)N(COC(=O)C(C)(C)C)C(=O)N1COC(=O)C(C)(C)C)C2 [Compound 80]	3.092	
COCCOCCOCCN1C(=O)N[C@@](CN2Cc3ccc(OC)cc3C2=O)(c2cc3cnccc3o2)C1=O [Compound 49]	0.088	
CCCC(=O)OCN1C(=O)N(C(=O)CCC)[C@@](CN2Cc3ccc(OC)cc3C2=O)(c2cc3cnccc3o2)C1=O [Compound 82]	0.783	
COCN1C(=O)N[C@@](CN2Cc3ccc(OC)cc3C2=O)(c2cc3ncccc3o2)C1=O [Compound 58]	2.125	
COc1ccc2c(c1F)C(=O)N(C[C@@]1(c3cc4cc5c(c(F)c4o3)C(=O)NC5)NC(=O)N(COCc3ccccc3)C1=O)C2 [Compound 57]	2.244	
COc1ccc2c(c1F)C(=O)N(C[C@@]1(c3cc4cc5c(c(F)c4o3)C(=O)NC5)NC(=O)N(COC(=O)C(C)(C)C)C1=O)C2 [Compound 7]	1.898	
CCN1C(=O)N[C@@](CN2Cc3ccc(OC)cc3C2=O)(c2cc3ncccc3o2)C1=O [Compound 46]	0.868	
COc1ccc2c(c1)C(=O)N(C[C@@]1(c3cc4cnccc4o3)NC(=O)N(COC(=O)N(C)C)C1=O)C2 [Compound 69]	13.539	
COc1ccc2c(c1)C(=O)N(C[C@]1(c3cc4cnccc4o3)C(=O)N(COC(=O)C3CCCCC3)C(=O)N1C(=O)C1CCCCC1)C2 [Compound 87]	0	
COc1ccc2c(c1)C(=O)N(C[C@@]1(c3cc4cnccc4o3)NC(=O)N(COC(=O)C3(C)CCCCC3)C1=O)C2 [Compound 35.2]		7.45
COc1ccc2c(c1)C(=O)N(C[C@@]1(c3cc4cnccc4o3)NC(=O)N(COP(=O)(OCc3ccccc3)OCc3ccccc3)C1=O)C2 [Compound 74]		5.50
COCN1C(=O)N[C@@](CN2Cc3ccc(OC)c(F)c3C2=O)(c2cc3cc4c(c(F)c3o2)C(=O)NC4)C1=O [Compound 56]	0	
COCN1C(=O)N[C@@](CN2Cc3ccc(OC)cc3C2=O)(c2cc3cnccc3o2)C1=O [Compound 52]	1.072	
COCCOCC(=O)OCN1C(=O)N[C@@](CN2Cc3ccc(OC)cc3C2=O)(c2cc3cnccc3o2)C1=O [Compound 67.2]		6.50
COc1ccc2c(c1F)C(=O)N(C[C@@]1(c3cc4cc5c(c(F)c4o3)C(=O)NC5)NC(=O)N(C3OC(=O)c4ccccc43)C1=O)C2 (some centres unmarked) [Compound 75]	0.189	
COc1ccc2c(c1)C(=O)N(C[C@]1(c3cc4cnccc4o3)C(=O)N(COC(=O)OCCN(C)C(=O)OCc3ccccc3)C(=O)N1C(=O)OCCN(C)C(=O)OCc1ccccc1)C2 [Compound 89]		5.31
COc1ccc2c(c1)C(=O)N(C[C@@]1(c3cc4cnccc4o3)NC(=O)N(C(=O)OC3COCOC3)C1=O)C2 [Compound 77]	0	
